Data as given in patent publication US10711033B2, “Branched chain-containing aromatic compound” (AJINOMOTO CO., INC., priority 2010, dated 2020).

Assay: Solubility (20° C.) of branched chain-containing and straight chain-containing aromatic compounds in various solvents
Conditions: for solubility in CPME: saturated in CPME (cyclopentylmethylether) at 20° C.; for solubility in chloroform: saturated in chloroform at 20° C.; for solubility in ethyl acetate: saturated in ethyl acetate at 20° C.; for solubility in isopropyl acetate: saturated in isopropyl acetate at 20° C.; for solubility in toluene: saturated in toluene at 20° C.

TERGITOL-Adduct of 3-hydroxymethylphenol [Example 21]
solubility in CPME: >50 wt % | solubility in chloroform: >50 wt % | solubility in ethyl acetate: >50 wt %

3,4,5-tri(2′,3′-dihydrophytyloxy)benzyl alcohol [Example 5]
solubility in CPME: >50 wt % | solubility in chloroform: >50 wt % | solubility in ethyl acetate: >50 wt % | solubility in isopropyl acetate: >50 wt % | solubility in toluene: >50 wt %

CCCCCCCCCCCCCCCCCCCCCCOc1ccc(C(N)c2ccc(C)cc2)cc1 (centres unmarked) [compound 3]
solubility in CPME: 0.01 wt % | solubility in chloroform: 0.8 wt % | solubility in ethyl acetate: 0.2 wt % | solubility in isopropyl acetate: 0.1 wt % | solubility in toluene: 0.01 wt %

CCCCCCCCCCCCCCCCCCOc1cc(CO)cc(OCCCCCCCCCCCCCCCCCC)c1OCCCCCCCCCCCCCCCCCC [Comparative Example 1]
solubility in CPME: 4.5 wt % | solubility in chloroform: 9.9 wt % | solubility in ethyl acetate: 0.2 wt % | solubility in isopropyl acetate: 0.02 wt % | solubility in toluene: 2.6 wt %

CCCCCCCCCCCCCCCCCCCCCCOc1ccc(CO)c(OCCCCCCCCCCCCCCCCCCCCCC)c1 [compound 2]
solubility in ethyl acetate: 0.3 wt % | solubility in isopropyl acetate: 0.06 wt %
